{
  "source": "patent US11802131B2",
  "about": "“Glutarimides for medical treatment” (C4 Therapeutics, Inc., priority 2017, dated 2023)",
  "data": [
    {"target": "hCereblon(M1-L442)_hDDB1(M1-H1140) (Homo sapiens (Human), UniProt Q96SW2)", "sequence (Q96SW2 whole entry)": "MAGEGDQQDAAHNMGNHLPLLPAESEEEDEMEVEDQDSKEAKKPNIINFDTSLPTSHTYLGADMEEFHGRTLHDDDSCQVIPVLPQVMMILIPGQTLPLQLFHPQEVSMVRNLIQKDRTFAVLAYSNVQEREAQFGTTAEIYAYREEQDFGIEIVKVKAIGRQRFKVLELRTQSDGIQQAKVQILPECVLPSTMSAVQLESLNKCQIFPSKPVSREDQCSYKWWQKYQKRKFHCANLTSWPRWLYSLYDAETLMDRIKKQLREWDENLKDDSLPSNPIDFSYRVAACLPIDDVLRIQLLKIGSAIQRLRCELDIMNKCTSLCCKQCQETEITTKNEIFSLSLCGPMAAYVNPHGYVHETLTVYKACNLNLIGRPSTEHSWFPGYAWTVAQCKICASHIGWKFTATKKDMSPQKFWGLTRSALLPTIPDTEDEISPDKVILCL", "sequence (Q16531 whole entry partner)": "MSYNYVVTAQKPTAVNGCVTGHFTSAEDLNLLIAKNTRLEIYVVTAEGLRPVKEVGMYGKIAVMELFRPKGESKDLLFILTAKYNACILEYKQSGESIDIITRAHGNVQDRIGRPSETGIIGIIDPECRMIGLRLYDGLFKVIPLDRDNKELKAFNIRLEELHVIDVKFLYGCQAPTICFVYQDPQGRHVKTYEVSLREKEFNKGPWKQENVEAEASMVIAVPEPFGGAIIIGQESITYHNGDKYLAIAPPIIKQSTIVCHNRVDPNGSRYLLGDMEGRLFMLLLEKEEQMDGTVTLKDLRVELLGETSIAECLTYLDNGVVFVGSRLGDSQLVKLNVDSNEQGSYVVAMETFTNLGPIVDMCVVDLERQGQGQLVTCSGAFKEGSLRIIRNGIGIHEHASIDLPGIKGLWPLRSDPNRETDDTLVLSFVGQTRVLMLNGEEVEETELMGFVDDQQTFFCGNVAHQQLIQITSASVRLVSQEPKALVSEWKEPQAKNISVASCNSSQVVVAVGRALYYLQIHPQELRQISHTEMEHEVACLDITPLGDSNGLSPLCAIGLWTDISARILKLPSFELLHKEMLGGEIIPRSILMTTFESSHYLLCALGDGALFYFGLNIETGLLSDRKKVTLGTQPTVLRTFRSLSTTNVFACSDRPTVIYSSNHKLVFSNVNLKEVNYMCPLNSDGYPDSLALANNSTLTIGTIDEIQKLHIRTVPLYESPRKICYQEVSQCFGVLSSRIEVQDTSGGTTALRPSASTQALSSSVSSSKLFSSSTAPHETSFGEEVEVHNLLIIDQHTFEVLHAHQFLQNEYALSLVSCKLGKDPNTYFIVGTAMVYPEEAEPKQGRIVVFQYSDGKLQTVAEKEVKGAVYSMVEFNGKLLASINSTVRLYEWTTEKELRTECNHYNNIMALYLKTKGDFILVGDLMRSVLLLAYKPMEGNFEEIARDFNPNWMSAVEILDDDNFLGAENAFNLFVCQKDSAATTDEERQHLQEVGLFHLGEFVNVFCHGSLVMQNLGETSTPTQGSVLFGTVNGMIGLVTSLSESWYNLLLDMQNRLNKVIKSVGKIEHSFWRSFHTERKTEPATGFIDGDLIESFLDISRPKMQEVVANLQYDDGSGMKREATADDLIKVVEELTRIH", "experiment": "Fluorescence direct binding protocol (tryptophan fluorescence titration)", "conditions": "20° C., excited at 280 nm, recorded at 340 nm, assay buffer 50 mM Hepes 7.4 200 mM NaCl; read-out: Fluorescence h-Cereblon_DDB1 Mean Kd_EQ", "experimental": "Fluorescence Direct Binding Protocol\nDetermination of the affinities of compounds to protein containing one or more tryptophan is measurable by monitoring the fluorescence emission in direct mode. The measurements depending on the protein available amounts are performed either manually in a cuvette on ISS-PC1 photon counting spectrofluorometer or automatically in well plates on a fluorescence plate reader device. Fluorescence titrations are performed at 20° C. in the chosen binding assay buffer by using a defined constant protein concentration against ligand concentration variations. Small aliquots of known ligand concentration solubilized in DMSO were added and the fluorescence, excited at 280 nm, was recorded at 340 nm. The fluorescence intensity was corrected for protein dilution and for the filter effect (Birdsall et al.^72).\n1) Optimization of measurement parameters to minimize protein consumption and to minimize the dilution effect and the DMSO content\n2) Titration measurements of the protein against ligand by at least 12 titration steps to obtain a good s-curve fit\n3) Repeat the same titration measurements with the ligand alone to enable correction\n4) Check the stability of the protein once by titration against DMSO alone\n5) Determination of the molar extinction coefficients of the ligand at 280 and 340 nm with help of an UV-spectrophotometer\n6) Use Excel template for the correction of the measured raw data\n7) Use GraphPad Prism software for the quadratic binding fit and the KD evaluation.", "units": {"Kd": "nM"}, "values": [
      {"smiles": "O=C1CC[C@@H](NC(=O)C2CCc3cccnc32)C(=O)N1", "note": "(mixture of isomers) [Example 22]", "Kd": "< 1"},
      {"smiles": "O=C1CCC(NC(=O)C2CCc3ccccc32)C(=O)N1", "note": "(racemic) [Example 2, N-(2,6-Dioxopiperidin-3-yl)-2,3-dihydro-1H-indene-1-carboxamide]", "Kd": 655},
      {"smiles": "CN1C(=O)CCC(NC(=O)[C@H]2CCCc3ccccc32)C1=O", "note": "(single isomer, unassigned) [Example 74]", "Kd": 5},
      {"smiles": "CN1C(=O)CCC(NC(=O)[C@H]2CCCc3ccccc32)C1=O", "note": "(single isomer, unassigned) [Example 75]", "Kd": 46},
      {"smiles": "O=C1CCC(NC(=O)C2CCc3ccccc32)C(=O)N1", "note": "(single isomer, unassigned; (+)) [Example 5, (+)-N-(2,6-Dioxopiperidin-3-yl)-2,3-dihydro-1H-indene-1-carboxamide]", "Kd": 197},
      {"smiles": "O=C1CCC(NC(=O)C2CCc3ccccc32)C(=O)N1", "note": "(single isomer, unassigned; (-)) [Example 4, (−)-N-(2,6-Dioxopiperidin-3-yl)-2,3-dihydro-1H-indene-1-carboxamide]", "Kd": 68},
      {"smiles": "O=C1CC[C@H](NC(=O)Cc2ccccc2)C(=O)N1", "note": "[Example 1, (S)-N-(2,6-Dioxo-3-piperidinyl)benzeneacetamide]", "Kd": 27},
      {"smiles": "CCCN1Cc2ccccc2C1C(=O)NC1CCC(=O)NC1=O", "note": "(stereo not drawn) [Example 3, N-(2,6-Dioxopiperidin-3-yl)-2-propylisoindoline-1-carboxamide]", "Kd": 57},
      {"smiles": "O=C1CCC(NC(=O)C2CCc3ccccc32)C(=O)N1", "note": "(stereo not drawn) [Example 6, N-(2,6-Dioxopiperidin-3-yl)-2,3-dihydro-1H-indene-1-carboxamide]", "Kd": 146},
      {"smiles": "O=C1CCC(NC(=O)c2c[nH]c3ccccc23)C(=O)N1", "note": "(stereo not drawn) [Example 7, N-(2,6-Dioxopiperidin-3-yl)-1H-indole-3-carboxamide]", "Kd": 28},
      {"smiles": "Cn1cc(C(=O)NC2CCC(=O)NC2=O)c2ccccc21", "note": "(stereo not drawn) [Example 8, N-(2,6-Dioxopiperidin-3-yl)-1-methyl-1H-indole-3-carboxamide]", "Kd": 30},
      {"smiles": "O=C1CCC(NC(=O)N2CCc3ccccc32)C(=O)N1", "note": "(stereo not drawn) [Example 9, N-(2,6-Dioxopiperidin-3-yl)indoline-1-carboxamide]", "Kd": 2},
      {"smiles": "O=C1CCC(NC(=O)C2CCCC2)C(=O)N1", "note": "(stereo not drawn) [Example 11, N-(2,6-Dioxopiperidin-3-yl)cyclopentanecarboxamide]", "Kd": 12},
      {"smiles": "O=C1CCC(NC(=O)c2coc3ccccc23)C(=O)N1", "note": "(stereo not drawn) [Example 12, N-(2,6-Dioxopiperidin-3-yl)benzofuran-3-carboxamide]", "Kd": 2},
      {"smiles": "O=C1CCC(NC(=O)c2csc3ccccc23)C(=O)N1", "note": "(stereo not drawn) [Example 13, N-(2,6-Dioxopiperidin-3-yl)benzo[b]thiophene-3-carboxamide]", "Kd": 8},
      {"smiles": "O=C1CCC(NC(=O)[C@@H]2CCCc3ccccc32)C(=O)N1", "note": "(stereo partly drawn) [Example 14, (1R)-N-(2,6-Dioxopiperidin-3-yl)-1,2,3,4-tetrahydronaphthalene-1-carboxamide]", "Kd": 4},
      {"smiles": "O=C1CCC(NC(=O)[C@H]2CCCc3ccccc32)C(=O)N1", "note": "(stereo partly drawn) [Example 15, (1S)-N-(2,6-Dioxopiperidin-3-yl)-1,2,3,4-tetrahydronaphthalene-1-carboxamide]", "Kd": "< 1"},
      {"smiles": "CN(C(=O)c1c[nH]c2ccccc12)C1CCC(=O)NC1=O", "note": "(stereo not drawn) [Example 16, N-(2,6-Dioxopiperidin-3-yl)-N-methyl-1H-indole-3-carboxamide]", "Kd": 3},
      {"smiles": "O=C1CC[C@H](NC(=O)c2c[nH]c3ccccc23)C(=O)N1", "note": "[Example 17, (S)-N-(2,6-Dioxopiperidin-3-yl)-1H-indole-3-carboxamide]", "Kd": 14},
      {"smiles": "O=C1CC[C@@H](NC(=O)c2c[nH]c3ccccc23)C(=O)N1", "note": "[Example 18, (R)-N-(2,6-Dioxopiperidin-3-yl)-1H-indole-3-carboxamide]", "Kd": 14},
      {"smiles": "O=C1CC[C@H](NC(=O)C2CCc3ncccc32)C(=O)N1", "note": "(stereo partly drawn) [Example 19, N-((S)-2,6-Dioxopiperidin-3-yl)-6,7-dihydro-5H-cyclopenta[b]pyridine-5-carboxamide]", "Kd": 1}
    ]}
  ]
}
